Experimental data: US9012502B2, “Cancer heat therapy-enhancing agent” (SBI Pharmaceuticals Co., Ltd., priority 2010, dated 2015)

Columns and labels:
[1] = system: colon cancer-derived cell line Caco-2; assay: Hyperthermia sensitivity test using flow cytometry; format: cell-based; details: for fraction of dead cells (%), increase compared with 5-ALA-free cells: 42° C.
Procedure: (§1) To investigate what kind of effect the addition of 5-ALA could exert on hyperthermia sensitivity of cancer cells, a hyperthermia sensitivity test was performed using a flow cytometry technique as follows.
(§2) First, a human fibrosarcoma cell line HT-1080 and a colon cancer-derived cell line Caco-2 were prepared as cancer cell lines, and a human fibroblast line WI-38 and a murine fibroblast line NIH3T3 were prepared as normal cell lines. Also, prepared was a human embryonic kidney cell line HEK293 transformed so as to overgrow like cancer cells. These cells were cultured at 37° C. for 24 hours in 10% FBS-containing DME medium, and split into 8 groups. Next, the medium was replaced by an FBS-free DME medium. Then, 5-aminolevulinic acid (5-ALA) was added to each group at a final concentration of 0.5 mM, 1.0 mM, or 2.0 mM, and cultured at 37° C. for 2 hours. After that, 10% FBS was added, and the resulting cell groups were incubated […] for 24 hours. In addition, 5-ALA-free cell groups were likewise incubated at 37 or 42° C. for 24 hours. All the above culture processes were conducted in the dark, so that an ultraviolet light, visible light, infrared light, or radiation, etc., was never used for irradiation.
(§3) With regard to the fraction of dead cells, a total number of cells having apoptosis and necrosis was counted, and a ratio of the total number to the number of all cells was calculated. […] Of note is little enhancement of the cell death-inducing effect in normal cells.

[2] = system: human fibrosarcoma cell line HT-1080; assay: Hyperthermia sensitivity test using flow cytometry; format: cell-based; details: for fraction of dead cells (%), increase compared with 5-ALA-free cells: 42° C.
Procedure: as §1, §2, §3

[3] = system: human fibroblast line WI-38; assay: Hyperthermia sensitivity test using flow cytometry; format: cell-based; details: normal cells WI-38, 42° C.
Procedure: as §1, §2, §3

[4] = system: human embryonic kidney cell line HEK293 transformed so as to overgrow like cancer cells; assay: Hyperthermia sensitivity test using flow cytometry; format: cell-based; details: for fraction of dead cells (%), increase compared with 5-ALA-free cells: 42° C.
Procedure: as §1, §2, §3

[5] = system: murine fibroblast line NIH3T3; assay: Hyperthermia sensitivity test using flow cytometry; format: cell-based; details: normal cells NIH3T3, 42° C.
Procedure: as §1, §2, §3

[6] = system: normal cell line WI-38; assay: Measuring intracellular PpIX concentration by HPLC; format: cell-based, human; details: WI-38, regardless of the 5-ALA concentration added, 37 or 42° C.
Procedure: (§4) These two types of cells were cultured at 37 or 42° C. for 24 hours in a DME medium containing 10% FBS and 5-ALA at a concentration of 0, 0.5, 1, or 2 mM. Next, the cells were harvested using trypsin treatment. Then, the number of cells contained in a measurement sample was adjusted using a hemocytometer at 1×10^4. After that, the cells were lysed with NaOH, and treated with a DMF solution (i.e., a mixture of N,N-dimethylformamide:2-propanol=100:1). The resulting cell lysate was centrifuged at 13,000 rpm and 4° C. for 10 minutes to collect a supernatant. Subsequently, the supernatant was reacted at room temperature for 24 hours. Finally, the resulting supernatant was used as a measurement sample, and was subjected to a PpIX concentration measurement using HPLC.

[7] = system: transformed human embryonic kidney cell line HEK293; assay: Measuring intracellular PpIX concentration by HPLC; format: cell-based; details: for intracellular PpIX concentration, increase compared with 5-ALA-free cells: 42° C. for 24 hours
Procedure: as §4

[8] = system: HEK293 cells; assay: Assay for intracellular reactive oxygen species (DCF-DA, flow cytometry); format: cell-based, human; details: for fluorescence peak value derived from DCF-DA: 42° C. (5-ALA-free cells 244); for level of intracellular reactive oxygen species, increase compared with 5-ALA-free cells: 42° C. for 24 hours, in the dark
Text: To investigate what kind of effect 5-aminolevulinic acids according to the present invention could exert on a level of intracellular reactive oxygen species during thermotherapy, human embryonic kidney-derived HEK293 cells and a DCF-DA fluorescent reagent (2′,7′-dichlorodihydrofluorescein diacetate; H2DCFDA) were used to perform an assay for measuring a level of intracellular reactive oxygen species. Note that this assay uses characteristics as follows. Cell-permeable H2DCFDA remains a non-fluorescent substance until it is oxidized in the cytoplasm of a viable cell. Once it enters the viable cell, its diacetate group is cleaved by an intracellular esterase. Then, the resulting molecule is further oxidized by reactive oxygen species to emit fluorescence. The higher the measured fluorescence level, the higher the level of intracellular reactive oxygen species. This assay was performed using the following procedure.
First, HEK293 cells were cultured at 37° C. for 24 hours in 10% fetal bovine serum (FBS)-containing Dulbecco's Modified Eagle (DME) medium. The cells were split into 8 groups. Next, the medium was replaced by an FBS-free DME medium. Then, 5-aminolevulinic acid (5-ALA) was added to each group at a final concentration of 0.5 mM, 1.0 mM, or 2.0 mM, and cultured at 37° C. for 2 hours. After that, 10% FBS was added, and the resulting HEK293 cells were incubated at 37 or 42° C. for 24 hours. In addition, 5-ALA-free HEK293 cells were likewise incubated at 37 or 42° C. for 24 hours. All the above culture processes were conducted in the dark, so that an ultraviolet light, visible light, infrared light, or radiation, etc., was never used for irradiation.
Furthermore, to each group of the HEK293 cells was added a DCF-DA fluorescent reagent (manufactured by Sigma-Aldrich Corporation) at a final concentration of 20 μM. The resulting mixture was incubated for 30 minutes. Then, fluorescence (FL1: green fluorescence) derived from the DCF-DA was measured for each group by flow cytometry (FACSCalibur, manufactured by Becton, Dickinson and Company). […] More specifically, when 0.5 mM of 5-ALA was added at an incubation temperature of 42° C., the level of intracellular reactive oxygen species was increased by 1.23 times (300/244) compared with that of the 5-ALA-free cells. When 1.0 mM of 5-ALA was added, the level of intracellular reactive oxygen species was increased by 1.34 times (326/244). When 2.0 mM of 5-ALA was added, the level of intracellular reactive oxygen species was increased by 1.42 times (346/244).

NCC(=O)CCC(=O)O [5-ALA, 5-aminolevulinic acid]
fraction of dead cells (%), increase compared with 5-ALA-free cells ([1]; Caco-2, 0.5 mM 5-ALA): about 2.1 times
fraction of dead cells (%), increase compared with 5-ALA-free cells ([1]; Caco-2, 1.0 mM 5-ALA): about 2.0 times
fraction of dead cells (%), increase compared with 5-ALA-free cells ([1]; Caco-2, 2.0 mM 5-ALA): about 1.9 times
fraction of dead cells (in words) ([1]; Caco-2, 37° C.): somewhat increased
fraction of dead cells (in words) ([1]; Caco-2, 42° C.): increase markedly
fraction of dead cells (%), increase compared with 5-ALA-free cells ([2]; HT-1080, 0.5 mM 5-ALA): about 1.7 times
fraction of dead cells (%), increase compared with 5-ALA-free cells ([2]; HT-1080, 1.0 mM 5-ALA): about 1.5 times
fraction of dead cells (%), increase compared with 5-ALA-free cells ([2]; HT-1080, 2.0 mM 5-ALA): about 2.3 times
fraction of dead cells (in words) ([2]; HT-1080, 37° C.): somewhat increased
fraction of dead cells (in words) ([2]; HT-1080, 42° C.): increase markedly
5-ALA concentration-dependent cell death (in words) [3]: not enhanced
fraction of dead cells (%), increase compared with 5-ALA-free cells ([4]; HEK293, 0.5 mM 5-ALA): about 3.2 times
fraction of dead cells (%), increase compared with 5-ALA-free cells ([4]; HEK293, 1.0 mM 5-ALA): about 4.8 times
fraction of dead cells (%), increase compared with 5-ALA-free cells ([4]; HEK293, 2.0 mM 5-ALA): about 6.0 times
fraction of dead cells (in words) ([4]; HEK293, 37° C.): somewhat increased
fraction of dead cells (in words) ([4]; HEK293, 42° C.): increase markedly
5-ALA concentration-dependent cell death (in words) [5]: not enhanced
intracellular PpIX concentration (in words) [6]: detection limit or less
intracellular PpIX concentration, increase compared with 5-ALA-free cells ([7]; HEK293, 0.5 mM 5-ALA): about 2.75 times
intracellular PpIX concentration, increase compared with 5-ALA-free cells ([7]; HEK293, 1.0 mM 5-ALA): about 6.3 times
intracellular PpIX concentration, increase compared with 5-ALA-free cells ([7]; HEK293, 2.0 mM 5-ALA): about 5.9 times
PpIX concentration in the HEK293 cell line (in words) ([7]; culture conditions at 42° C.): increased depending on the 5-ALA concentration
fluorescence peak value derived from DCF-DA ([8]; 0.5 mM 5-ALA): 300
level of intracellular reactive oxygen species, increase compared with 5-ALA-free cells ([8]; 0.5 mM 5-ALA): 1.23 times
fluorescence peak value derived from DCF-DA ([8]; 1.0 mM 5-ALA): 326
level of intracellular reactive oxygen species, increase compared with 5-ALA-free cells ([8]; 1.0 mM 5-ALA): 1.34 times
fluorescence peak value derived from DCF-DA ([8]; 2.0 mM 5-ALA): 346
level of intracellular reactive oxygen species, increase compared with 5-ALA-free cells ([8]; 2.0 mM 5-ALA): 1.42 times
level of intracellular reactive oxygen species (in words) ([8]; incubation temperature 37° C., 0.5-2.0 mM 5-ALA): somewhat increased
